Laboratory results as given in US20250161196A1, “Antioxidant Compositions” (THE BOOTS COMPANY PLC, priority 2022, published 2025).

Test: Total Antioxidant Capacity (TAC) assay, Cell Biolabs kit, copper ion reduction, absorbance at 490 nm
Type: biochemical
Settings: for Total Antioxidant Capacity (TAC): absorbance 490 nm, triplicate; for TAC of the individual antioxidant agent: Table 1 / FIG. 1, single agent alone
Experimental: Total antioxidant capacity (TAC) was determined using a kit (Cell Biolabs, Inc) as follows; the test samples were diluted in water and a buffer to reach a final antioxidant agent to buffer ratio ranging from 1:1 to 1:1,000,000. 20 ul of test sample or control (ascorbic acid or green tea) were added to the wells of 96 well plate, followed by 180 μL of 1× Reaction Buffer (provided with the kit). The absorbance of the reaction mix in each well was measured at 490 nm to get an initial reading. 50 μL of the 1× Copper Ion Reagent (provided with the kit) were added to each well to initiate the reaction. The reaction was allowed to carry on for 5 minutes on an orbital shaker and 50 μL of 1× Stop Solution (provided with the kit) added to each well to terminate the reaction. The colour change was assessed using a plate reader at 490 nm.
The stronger the colour change at the end of the reaction, the higher the spectrophotometric value, and the higher the antioxidant capacity of the antioxidant agents.
21 antioxidant compounds were tested in triplicate at antioxidant: buffer ratios ranging from 1:1 to 1:1,000,000. […]

[1] = Antioxidant:Buffer 1:1 (concentration 1)
[2] = Antioxidant:Buffer 1:10 (concentration 0.1)
[3] = Antioxidant:Buffer 1:100 (concentration 0.01)

SMILES	Total Antioxidant Capacity (TAC) [1]	Total Antioxidant Capacity (TAC) [2]	Total Antioxidant Capacity (TAC) [3]	TAC of the individual antioxidant agent
O=C1O[C@H]([C@@H](O)CO)C(O)=C1O [Ascorbic Acid (Control), Ascorbic Acid, reference compound]	2.6	1.6	0.7	–
COc1cc(/C=C/C(=O)O)ccc1O [Ferulic acid]	1.911	1.808	1.991	1.583
COc1cc2c(cc1O)CCC(C)(C)O2 [Dimethylmethylmethoxy chromanol, Dimethylmethoxy chromanol]	1.839	1.807	1.824	1.671
